From patent US7923471B2, “Method of treating dry eye disorders and uveitis” (Alcon, Inc., priority 2004, dated 2011)
Marks after values point to notes of the source that are not given here.

How the values were obtained:
rabbit model of dry eye [1] = test: Rabbit model of dry eye (lacrimal gland ConA injection followed by desiccation): corneal staining with methylene blue; type: in vivo, New Zealand white rabbits; details: 50 μl topical twice a day, ConA-injected rabbit eyes, 72 h desiccation
Procedure: Compound 1 was evaluated in a rabbit model of dry eye. New Zealand white rabbits (approximately 2.5 kg; obtained from Myrtle's Rabbitry, Thompson Station, Tenn.) were randomized and dosed topically twice a day with either 50 μl of compound 1 formulated in 0.064%/BSS® at concentrations of 1, 10, or 100 μM, or with 0.064%/BSS® vehicle. After 24 h the rabbits were anesthetized by subcutaneous administration of ketamine hydrochloride (30 mg/kg) and xylazine (6 mg/kg) and each rabbit received bilateral injections of Conconavilin A (ConA) (300 μg/30 μl) or saline (30 μl). Desiccation was initiated one day following lacrimal gland injection by placing conscious animals in an environmental chamber (20-30% humidity, […]). Following 72 hours of exposure to environment, the animals were assessed for corneal staining upon exposure of the cornea to the dye methylene blue; less staining indicates less damage to the cornea. The rabbits were anesthetized by subcutaneous administration of ketamine hydrochloride (30 mg/kg) and xylazine (6 mg/kg). Sutures were placed in each upper and lower eyelid and lifted to form a corneal/conjunctival cup. Methylene blue dye (1 mL, 1% in distilled water) was added to the cup for five minutes and the excess removed by washing with 200 mL of BSS®. The contralateral eye was then stained using the same procedure. Rabbits were euthanized immediately following the staining procedure and the eyes were excised. The corneas were isolated and a 9.5 mm punch of the cornea was placed overnight in 2 mL of acetone/saturated sodium sulfate (7:3 v/v). The concentration of the extracted dye was determined spectrophotometrically by measuring its absorbance at λ=660 nanometers (A660). Percent inhibition was calculated as {1−[(A660test item−A660Normal)/(A660BSS−A660Normal)]}×100, where A660test item is the absorbance of dye from ConA-injected eyes dosed with compound 1, A660Normal is the absorbance of dye from saline-injected eyes, and A660BSS is the absorbance of dye in ConA-injected eyes dosed with 0.064% ethanol/BSS® solution vehicle. A higher percent inhibition of staining indicates more protection of the cornea from damage.
(§1) The % inhibition of corneal staining and TBUT data are presented below in table 1, with 15S-HETE (Biomol Research Laboratories, Plymouth Meeting, Pa.) treatment of ConA-injected eyes used as a positive control.

rabbit model of dry eye [2] = test: Rabbit model of dry eye (lacrimal gland ConA injection followed by desiccation): tear breakup time (TBUT); type: in vivo, New Zealand white rabbits; details: ConA-injected rabbit eyes, baseline = saline-injected, vehicle-treated eyes
Procedure: A second group of animals was evaluated for tear film quality by measuring each animal's tear breakup time (TBUT). Using the same experimental protocol as above for inducing rabbit ocular damage, TBUT was determined daily by instilling 5 μL of sodium fluorescein into the cul de sac and manually blinking the lids to distribute the fluroescein within the tear film. Under slit lamp observation, the eye was held open and the time whereby one or more black spots or streaks appeared in the precorneal tear film was recorded. The rabbits were euthanized 3 days following ConA injection. Larger TBUT values indicate better tear film quality and more protection from ocular damage. TBUT data is expressed as % of baseline, with baseline TBUT being that observed for saline-injected, vehicle-treated eyes.
as §1

[3] = system: endotoxin-induced uveitis in rats; test: Endotoxin-induced uveitis in rats: ocular neutrophil (PMN) content by myeloperoxidase activity; type: in vivo, female Lewis rats; details: 24 h post endotoxin; for Myeloperoxidase (x ± standard deviation): 5 μL topical ocular at endotoxin injection and 4 h later, vehicle 164 ± 46
Procedure: Compound 1 was evaluated for its ability to suppress neutrophil influx into the rat eye in a model of endotoxin-induced uveitis. The compound was prepared at concentrations of 0.01%, 0.1%, 1.0% w/v in an ophthalmic suspension vehicle, and dexamethasone (Sigma-Aldrich Company, St. Louis, Mo.) formulated in the same vehicle served as reference compound. Uveitis was induced by subplantar injection of endotoxin (200 μg in 0.1 mL saline) in the right hind paw of female Lewis rats (5/group). Test compound of vehicle (5 μL) was administered topically to each eye of the experimental animals at the time of endoxtoxin injection and again 4 hours later. Twenty four hours post endotoxin injection, animals were sacrificed by CO2 inhalation, and total ocular neutrophil (PMN) content was assessed indirectly by determination of myeloperoxidase activity. Ocular PMN content in each group was then compared with that observed in the vehicle-treated group using Dunnet's t-test.

neutrophils = details: compared with lipoxin A4; cited from earlier work

Compound | % Inhibition of Corneal Staining, ±S.D. (rabbit model of dry eye [1]; 1 μM) | TBUT, % of Baseline, ±S.D. (rabbit model of dry eye [2]; 1 μM topical twice a day) | % inhibition (myeloperoxidase / ocular PMN content vs vehicle) ([3]; 0.1 % w/v topical ocular) | Myeloperoxidase (x ± standard deviation) ([3]; 0.1 % w/v) [μM/min/100 mg] | inhibition of LTB4-induced chemotaxis of neutrophils (neutrophils) | further results
COC(=O)CCC[C@H](O)[C@H](O)CO [Compound 1] | 75 ± 12^b % | 67 ± 17^b % of Baseline | 2% | 161 ± 37 | as potently as lipoxin A4 | % Inhibition of Corneal Staining, ±S.D. (rabbit model of dry eye [1]; 10 μM): 54 ± 9^b,c %; % Inhibition of Corneal Staining, ±S.D. (rabbit model of dry eye [1]; 100 μM): 38 ± 34^b,c %; TBUT, % of Baseline, ±S.D. (rabbit model of dry eye [2]; 10 μM topical twice a day): 45 ± 17^b % of Baseline; TBUT, % of Baseline, ±S.D. (rabbit model of dry eye [2]; 100 μM topical twice a day): 51 ± 18^b % of Baseline; % inhibition (myeloperoxidase / ocular PMN content vs vehicle) ([3]; 0.01 % w/v topical ocular): 13%; Myeloperoxidase (x ± standard deviation) ([3]; 0.01 % w/v): 143 ± 64 μM/min/100 mg; % inhibition (myeloperoxidase / ocular PMN content vs vehicle) ([3]; 1.0 % w/v topical ocular): 41* %; Myeloperoxidase (x ± standard deviation) ([3]; 1.0 % w/v): 97 ± 35 μM/min/100 mg
CCCCC[C@H](O)[C@H](O)CO [Compound 2] |  |  |  |  | as potently as lipoxin A4 | 
CCCCC[C@H](O)/C=C/C=C\C/C=C\C/C=C\CCCC(=O)O [Compound 15S-HETE, 15S-HETE, reference compound] | 77 ± 18^b % | 54 ± 21^b % of Baseline |  |  |  | 
C[C@@H]1C[C@H]2[C@@H]3CCC4=CC(=O)C=C[C@]4(C)[C@@]3(F)[C@@H](O)C[C@]2(C)[C@@]1(O)C(=O)CO [Dexamethasone, dexamethasone, reference compound] |  |  | 91* % | 15 ± 7 |  | 
